From ChEMBL document CHEMBL3885861, “Open TG-GATES”

Organism: Rattus norvegicus
Assay: Open TG-GATES - Regimen: Daily Repeat
Type: toxicity, organism-based, Sprague-Dawley
Parameters: regimen Daily Repeat, gender Male, age 6 weeks
Conditions: in vivo, po, route gavage; for APTT / Bas / Eos / Fbg / Hb / Ht / Lym / MCH / MCHC / MCV / Mono / Neu / PT / Plat / RBC / Ret / WBC: tissue Blood; for KIDNEY_L / KIDNEY_R / KIDNEY_TOTAL: tissue Kidney; for LIVER: tissue Liver; for ALP / ALT / AST / BUN / CRE / DBIL / GLC / K / Na / PL / RALB / TBIL / TC / TG / TP / gamma-GTP: tissue Plasma
[1] = 75 mg/kg, 72 h, dose level Middle, time 3 day
[2] = 75 mg/kg, […], dose level Middle, time 7 day
[3] = 75 mg/kg, […], dose level Middle, time 14 day
[4] = 75 mg/kg, […], dose level Middle, time 28 day
[5] = 250 mg/kg, 72 h, dose level High, time 3 day
[6] = 250 mg/kg, […], dose level High, time 7 day
[7] = 250 mg/kg, […], dose level High, time 14 day
[8] = 250 mg/kg, […], dose level High, time 28 day

CN1C(=O)CN=C(c2ccccc2)c2cc(Cl)ccc21 [DIAZEPAM]
TERMINAL_BW [1]: 244.2 g
APTT [1]: 16.3 s
Bas [1]: 0%
Eos [1]: 1.2%
Fbg [1]: 235.6 mg/dL
Hb [1]: 13.7 g/dL
Ht [1]: 41.3%
Lym [1]: 77.4%
MCH [1]: 21.3 pg
MCHC [1]: 33.3%
MCV [1]: 64.1 fL
Mono [1]: 6%
Neu [1]: 15.8%
PT [1]: 11.6 s
Plat [1]: 112.9 x10_4/uL
RBC [1]: 644 x10_4/ul
Ret [1]: 6.3%
WBC [1]: 129.7 x10_2/uL
KIDNEY_L [1]: 1.1 g
KIDNEY_R [1]: 1 g
KIDNEY_TOTAL [1]: 2.1 g
LIVER [1]: 12.5 g
ALP [1]: 782.4 IU/L
ALT [1]: 33.2 IU/L
AST [1]: 62.6 IU/L
BUN [1]: 19 mg/dL
CRE [1]: 0.6 mg/dL
DBIL [1]: 0.008 mg/dL
GLC [1]: 194.2 mg/dL
K [1]: 5 meq/L
Na [1]: 138.7 meq/L
PL [1]: 164.2 mg/dL
RALB [1]: 4.1 g/dL
TBIL [1]: 0.4 mg/dL
TC [1]: 90.8 mg/dL
TG [1]: 99.2 mg/dL
TP [1]: 6 g/dL
gamma-GTP [1]: 0.8 IU/L
TERMINAL_BW [2]: 272.1 g
TERMINAL_BW [3]: 328 g
TERMINAL_BW [4]: 403 g
APTT [2]: 16.8 s
Bas [2]: 0%
Eos [2]: 1%
Fbg [2]: 230.6 mg/dL
Hb [2]: 14.3 g/dL
Ht [2]: 43.5%
Lym [2]: 77.8%
MCH [2]: 21 pg
MCHC [2]: 32.9%
MCV [2]: 63.8 fL
Mono [2]: 5.8%
Neu [2]: 15.4%
PT [2]: 11.4 s
Plat [2]: 107.7 x10_4/uL
RBC [2]: 682.8 x10_4/ul
Ret [2]: 5.5%
WBC [2]: 100.7 x10_2/uL
APTT [3]: 16.7 s
Bas [3]: 0%
Eos [3]: 0.6%
Fbg [3]: 228.6 mg/dL
Hb [3]: 14.6 g/dL
Ht [3]: 43.7%
Lym [3]: 82.6%
MCH [3]: 21.1 pg
MCHC [3]: 33.4%
MCV [3]: 63 fL
Mono [3]: 3.8%
Neu [3]: 12.8%
PT [3]: 11.8 s
Plat [3]: 111.6 x10_4/uL
RBC [3]: 694.4 x10_4/ul
Ret [3]: 4.9%
WBC [3]: 142.4 x10_2/uL
APTT [4]: 17.8 s
Bas [4]: 0%
Eos [4]: 1.2%
Fbg [4]: 236.6 mg/dL
Hb [4]: 15.2 g/dL
Ht [4]: 45.7%
Lym [4]: 80.4%
MCH [4]: 19 pg
MCHC [4]: 33.3%
MCV [4]: 57 fL
Mono [4]: 3.6%
Neu [4]: 14.4%
PT [4]: 12 s
Plat [4]: 106.3 x10_4/uL
RBC [4]: 802.8 x10_4/ul
Ret [4]: 2.6%
WBC [4]: 121 x10_2/uL
KIDNEY_L [2]: 1.2 g
KIDNEY_R [2]: 1.2 g
KIDNEY_TOTAL [2]: 2.3 g
KIDNEY_L [3]: 1.3 g
KIDNEY_R [3]: 1.4 g
KIDNEY_TOTAL [3]: 2.7 g
KIDNEY_L [4]: 1.4 g
KIDNEY_R [4]: 1.5 g
KIDNEY_TOTAL [4]: 2.9 g
LIVER [2]: 13.9 g
LIVER [3]: 15.5 g
LIVER [4]: 17.7 g
ALP [2]: 755 IU/L
ALT [2]: 36.8 IU/L
AST [2]: 57.8 IU/L
BUN [2]: 16.4 mg/dL
CRE [2]: 0.6 mg/dL
DBIL [2]: 0.01 mg/dL
GLC [2]: 199 mg/dL
K [2]: 4.5 meq/L
Na [2]: 138.9 meq/L
PL [2]: 155.2 mg/dL
RALB [2]: 4.2 g/dL
TBIL [2]: 0.3 mg/dL
TC [2]: 81.8 mg/dL
TG [2]: 86.4 mg/dL
TP [2]: 6.2 g/dL
gamma-GTP [2]: 1.2 IU/L
ALP [3]: 627.6 IU/L
ALT [3]: 32.8 IU/L
AST [3]: 59.2 IU/L
BUN [3]: 16 mg/dL
CRE [3]: 0.6 mg/dL
DBIL [3]: 0.006 mg/dL
GLC [3]: 194.8 mg/dL
K [3]: 4.4 meq/L
Na [3]: 141.1 meq/L
PL [3]: 144.8 mg/dL
RALB [3]: 4 g/dL
TBIL [3]: 0.4 mg/dL
TC [3]: 74.6 mg/dL
TG [3]: 87.4 mg/dL
TP [3]: 6.1 g/dL
gamma-GTP [3]: 1 IU/L
ALP [4]: 410.4 IU/L
ALT [4]: 32.2 IU/L
AST [4]: 56.8 IU/L
BUN [4]: 20.2 mg/dL
CRE [4]: 0.6 mg/dL
DBIL [4]: 0.012 mg/dL
GLC [4]: 192.4 mg/dL
K [4]: 4.2 meq/L
Na [4]: 139.9 meq/L
PL [4]: 151.4 mg/dL
RALB [4]: 4.1 g/dL
TBIL [4]: 0.3 mg/dL
TC [4]: 74 mg/dL
TG [4]: 136 mg/dL
TP [4]: 6.7 g/dL
gamma-GTP [4]: 0.4 IU/L
TERMINAL_BW [5]: 237.9 g
APTT [5]: 16.2 s
Bas [5]: 0%
Eos [5]: 1%
Fbg [5]: 230.6 mg/dL
Hb [5]: 14 g/dL
Ht [5]: 42%
Lym [5]: 78.8%
MCH [5]: 21.5 pg
MCHC [5]: 33.3%
MCV [5]: 64.8 fL
Mono [5]: 6.2%
Neu [5]: 14.2%
PT [5]: 11.6 s
Plat [5]: 103.3 x10_4/uL
RBC [5]: 648.4 x10_4/ul
Ret [5]: 5.6%
WBC [5]: 126.1 x10_2/uL
KIDNEY_L [5]: 1.1 g
KIDNEY_R [5]: 1.1 g
KIDNEY_TOTAL [5]: 2.1 g
LIVER [5]: 12.6 g
ALP [5]: 891.8 IU/L
ALT [5]: 47.4 IU/L
AST [5]: 68.8 IU/L
BUN [5]: 17.2 mg/dL
CRE [5]: 0.6 mg/dL
DBIL [5]: 0.024 mg/dL
GLC [5]: 201.4 mg/dL
K [5]: 4.8 meq/L
Na [5]: 138.9 meq/L
PL [5]: 173.6 mg/dL
RALB [5]: 3.8 g/dL
TBIL [5]: 0.3 mg/dL
TC [5]: 113.4 mg/dL
TG [5]: 59.8 mg/dL
TP [5]: 5.9 g/dL
gamma-GTP [5]: 1.8 IU/L
TERMINAL_BW [6]: 268.4 g
TERMINAL_BW [7]: 309.4 g
TERMINAL_BW [8]: 402.6 g
APTT [6]: 17.2 s
Bas [6]: 0%
Eos [6]: 1.2%
Fbg [6]: 211.8 mg/dL
Hb [6]: 13.7 g/dL
Ht [6]: 40.8%
Lym [6]: 76.6%
MCH [6]: 21.6 pg
MCHC [6]: 33.5%
MCV [6]: 64.6 fL
Mono [6]: 6%
Neu [6]: 16.6%
PT [6]: 11.6 s
Plat [6]: 128 x10_4/uL
RBC [6]: 633.8 x10_4/ul
Ret [6]: 5.9%
WBC [6]: 144 x10_2/uL
APTT [7]: 18.5 s
Bas [7]: 0%
Eos [7]: 0.8%
Fbg [7]: 245.8 mg/dL
Hb [7]: 14.6 g/dL
Ht [7]: 43.8%
Lym [7]: 79%
MCH [7]: 20.6 pg
MCHC [7]: 33.4%
MCV [7]: 61.8 fL
Mono [7]: 4.6%
Neu [7]: 15.6%
PT [7]: 11.9 s
Plat [7]: 106.7 x10_4/uL
RBC [7]: 709.4 x10_4/ul
Ret [7]: 4.3%
WBC [7]: 144 x10_2/uL
APTT [8]: 20.2 s
Bas [8]: 0%
Eos [8]: 1%
Fbg [8]: 252 mg/dL
Hb [8]: 15.4 g/dL
Ht [8]: 45.8%
Lym [8]: 81.4%
MCH [8]: 19.7 pg
MCHC [8]: 33.6%
MCV [8]: 58.5 fL
Mono [8]: 4.2%
Neu [8]: 13.4%
PT [8]: 12.2 s
Plat [8]: 109.3 x10_4/uL
RBC [8]: 782.2 x10_4/ul
Ret [8]: 3%
WBC [8]: 179.4 x10_2/uL
KIDNEY_L [6]: 1.2 g
KIDNEY_R [6]: 1.2 g
KIDNEY_TOTAL [6]: 2.4 g
KIDNEY_L [7]: 1.3 g
KIDNEY_R [7]: 1.4 g
KIDNEY_TOTAL [7]: 2.7 g
KIDNEY_L [8]: 1.6 g
KIDNEY_R [8]: 1.6 g
KIDNEY_TOTAL [8]: 3.2 g
LIVER [6]: 14.5 g
LIVER [7]: 16.6 g
LIVER [8]: 19.7 g
ALP [6]: 732.8 IU/L
ALT [6]: 35.4 IU/L
AST [6]: 64.8 IU/L
BUN [6]: 17.2 mg/dL
CRE [6]: 0.6 mg/dL
DBIL [6]: 0.008 mg/dL
GLC [6]: 194.4 mg/dL
K [6]: 4.5 meq/L
Na [6]: 139.1 meq/L
PL [6]: 133.4 mg/dL
RALB [6]: 3.9 g/dL
TBIL [6]: 0.3 mg/dL
TC [6]: 78 mg/dL
TG [6]: 35.4 mg/dL
TP [6]: 6.1 g/dL
gamma-GTP [6]: 1 IU/L
ALP [7]: 735.2 IU/L
ALT [7]: 37.8 IU/L
AST [7]: 54.2 IU/L
BUN [7]: 17.6 mg/dL
CRE [7]: 0.6 mg/dL
DBIL [7]: 0.01 mg/dL
GLC [7]: 193.6 mg/dL
K [7]: 4.6 meq/L
Na [7]: 142 meq/L
PL [7]: 145.4 mg/dL
RALB [7]: 4.1 g/dL
TBIL [7]: 0.2 mg/dL
TC [7]: 78.8 mg/dL
TG [7]: 48 mg/dL
TP [7]: 6.4 g/dL
gamma-GTP [7]: 1.6 IU/L
ALP [8]: 448.2 IU/L
ALT [8]: 35 IU/L
AST [8]: 53.6 IU/L
BUN [8]: 19 mg/dL
CRE [8]: 0.6 mg/dL
DBIL [8]: 0.012 mg/dL
GLC [8]: 195.4 mg/dL
K [8]: 4.1 meq/L
Na [8]: 140.5 meq/L
PL [8]: 135.4 mg/dL
RALB [8]: 4.3 g/dL
TBIL [8]: 0.3 mg/dL
TC [8]: 73.4 mg/dL
TG [8]: 48 mg/dL
TP [8]: 6.8 g/dL
gamma-GTP [8]: 0.8 IU/L
